Source: patent publication US9617244B2, “Antibacterial quinoline derivatives” (JANSSEN PHARMACEUTICA NV, priority 2012, dated 2017)
In brackets after ≈: the same amount, converted by molar mass.

What was measured:
[1] = tested on: Mycobacterium smegmatis (ATCC607); assay: In-vitro anti-bacterial activity against strain M. Smegmatis ATCC607; format: cell-based; conditions: 90% inhibitory concentration for bacterial growth, Alamar Blue fluorescence; for IC90 MSM 607: 48 hours; for IC90: Mycolicibacterium smegmatis, ATCC607, 48 h, read-out: IC90 MSM 607
Experimental: D.1. In-Vitro Method for Testing Compounds for Anti-Bacterial Activity Against Strain M. Smegmatis ATCC607
Flat-bottom, sterile 96-well plastic microtiter plates were filled with 180 μl of sterile deionized water, supplemented with 0.25% BSA. Subsequently, stock solutions (7.8× final test concentration) of compounds were added in 45 μl volumes to a series of duplicate wells in column 2 so as to allow evaluation of their effects on bacterial growth. Serial five-fold dilutions (45 μl in 180 μl) were made directly in the microtiter plates from column 2 to 11 using a customised robot system (Zymark Corp., Hopkinton, Mass.). Pipette tips were changed after every 3 dilutions to minimize pipetting errors with high hydrophobic compounds. Untreated control samples with (column 1) and without (column 12) inoculum were included in each microtiter plate. Approximately 250 CFU per well of bacteria inoculum, in a volume of 100 μl in 2.8× Mueller-Hinton broth medium, was added to the rows A to H, except column 12. The same volume of broth medium without inoculum was added to column 12 in row A to H. The cultures were incubated at 37° C. for 48 hours in a humidified 5% CO2 atmosphere (incubator with open air valve and continuous ventilation). At the end of incubation, two days after inoculation, the bacterial growth was quantitated fluorometrically. Therefore Alamar Blue (10×) was added to all wells in a volume of 20 μl and plates were incubated for another 2 hours at […]
The fluorescence was read in a computer-controlled fluorometer (Cytofluor, Biosearch) at an excitation wavelength of 530 nm and an emission wavelength of 590 nm (gain 30). The percentage growth inhibition achieved by the compounds was calculated according to standard methods and expressed as IC90 (μg/ml) which defines the 90% inhibitory concentration for bacterial growth.

[2] = tested on: Staphylococcus aureus (ATCC29213); assay: In-vitro anti-bacterial activity, microtitre plate assay, IC90 determination (non-mycobacterial strains); format: cell-based; conditions: 90% inhibitory concentration for bacterial growth, resazurin fluorescence; for IC90 STA B29213: 24 hours; for IC90: Staphylococcus aureus, ATCC29213, 24 h, read-out: IC90 STA B29213
Experimental: D.2. In-Vitro Method for Testing Compounds for Anti-Bacterial Activity Against Various Non-Mycobacterial Strains
Preparation of Bacterial Suspensions for Susceptibility Testing:
The bacteria used in this study were grown overnight in flasks containing 100 ml Mueller-Hinton Broth (Becton Dickinson—cat. no. 275730) in sterile de-ionized water, with shaking, at 37° C. Stocks (0.5 ml/tube) were stored at −70° C. until use. Bacteria titrations were performed in microtiter plates to detect the TCID50, in which TCID50 represents the dilution that gives rise to bacterial growth in 50% of inoculated cultures. In general, an inoculum level of approximately 100 TCID50 was used for susceptibility testing.
Anti Bacterial Susceptibility Testing: IC90 Determination
Flat-bottom, sterile 96-well plastic microtiter plates were filled with 180 μl of sterile deionized water, supplemented with 0.25% BSA. Subsequently, stock solutions (7.8× final test concentration) of compounds were added in 45 μl volumes in column 2 Serial five-fold dilutions (45 μl in 180 μl) were made directly in the microtiter plates from column 2 to reach column 11. Untreated control samples with (column 1) and without (column 12) inoculum were included in each microtiter plate. Depending on the bacteria type, approximately 10 to 60 CFU per well of bacteria inoculum (100 TCID50), in a volume of 100 μl in 2.8× Mueller-Hinton broth medium, was added to the rows A to H, except column 12. The same volume of broth medium without inoculum was added to column 12 in row A to H. The cultures were incubated at 37° C. for 24 hours under a normal atmosphere (incubator with open air valve and continuous ventilation). At the end of incubation, one day after inoculation, the bacterial growth was quantitated fluorometrically. Therefore resazurin (0.6 mg/ml) was added in a volume of 20 μl to all wells 3 hours after inoculation, and the plates were re-incubated overnight. A change in colour from blue to pink indicated the growth of bacteria. The fluorescence was read in a computer-controlled fluorometer (Cytofluor Biosearch) at an excitation wavelength of 530 nm and an emission wavelength of 590 nm. The % growth inhibition achieved by the compounds was calculated according to standard methods. The IC90 (expressed in μg/ml) was defined as the 90% inhibitory concentration for bacterial growth.

Row | Compound | IC90 MSM 607 [1] [µg/mL] | IC90 STA B29213 [2] [µg/mL] | IC90 [1] [µg/mL] | IC90 [2] [µg/mL]
1 | Cc1cc(F)ccc1C1CC(O)(C(c2cccc(Cl)c2)c2cc3cc(S(C)(=O)=O)ccc3[nH]c2=O)CCN1 (stereo not drawn) [Compound 159] | >14.69 | >14.69 | – | –
2 | C=CC1CC(O)(C(c2ccc(Cl)cc2)c2cc3cc(Br)ccc3[nH]c2=O)CCN1 (stereo not drawn) [Compound 361] | 6.42 (≈ 13.6 µM) | 12.82 (≈ 27.1 µM) | – | –
3 | CSc1ccc2[nH]c(=O)c(C(c3ccc(Cl)cc3)C3(O)CCNC(Cc4ccc(F)c(F)c4)C3)cc2c1 (stereo not drawn) [Compound 204] | 7.23 (≈ 13.4 µM) | 3.63 (≈ 6.71 µM) | – | –
4 | CSc1ccc2[nH]c(=O)c(C(c3cccc(Cl)c3)C3(O)CCNC(Cc4ccc(F)cc4F)C3)cc2c1 (stereo not drawn) [Compound 311] | 3.63 (≈ 6.71 µM) | 7.24 (≈ 13.4 µM) | – | –
5 | COc1nc2ccc(F)cc2cc1C(c1ccc(Cl)cc1)C1(O)CCNC(Cc2ccccc2)C1 (stereo not drawn) [Compound 370] | 1.55 (≈ 3.16 µM) | 3.09 (≈ 6.29 µM) | – | –
6 | COc1nc2ccc(S(C)(=O)=O)cc2cc1C(c1ccccc1)C1(O)CCNC(c2ccc(F)cc2C)C1 (stereo not drawn) [Compound 253] | >13.43 | >13.43 | – | –
7 | COc1nc2ccc(Br)cc2cc1C(c1ccc(Cl)cc1)C1(O)CCNC(Cc2ccccc2)C1 (stereo not drawn) [Compound 32] | 1.56 (≈ 2.83 µM) | 3.48 (≈ 6.31 µM) | – | –
8 | COc1nc2ccccc2cc1C(c1ccc(Cl)cc1)C1(O)CCNC(Cc2ccc(F)c(F)c2)C1 (stereo not drawn) [Compound 140] | 0.72 (≈ 1.41 µM) | 2.55 (≈ 5.01 µM) | – | –
9 | O=c1[nH]c2ccc(Br)cc2cc1C(c1ccc(Cl)cc1)C1(O)CCNC(Cc2ccc(F)c(F)c2)C1 (stereo not drawn) [Compound 127] | 3.06 (≈ 5.33 µM) | 1.93 (≈ 3.36 µM) | – | –
10 | COc1nc2ccc(Cl)cc2cc1C(c1ccc(Cl)cc1)C1(O)CCNCC1c1ccccc1 (stereo not drawn) [Compound 412] | 2.02 (≈ 4.09 µM) | 4.02 (≈ 8.15 µM) | – | –
11 | COc1nc2ccc(SC)cc2cc1C(c1cccc(Cl)c1)C1(O)CCNC(c2ccc(F)cc2C)C1 (stereo not drawn) [Compound 147] | 1.51 (≈ 2.81 µM) | 3.39 (≈ 6.31 µM) | – | –
12 | O=c1[nH]c2ccc(Br)cc2cc1C(c1ccc(Cl)cc1)C1(O)CCNC(CC2CCCCC2)C1 (stereo not drawn) [Compound 255] | 7.28 (≈ 13.4 µM) | 3.65 (≈ 6.71 µM) | – | –
13 | Cc1cc(F)ccc1C1CC(O)(C(c2ccc(Cl)cc2)c2cc3cc(S(C)(=O)=O)ccc3[nH]c2=O)CCN1 (stereo not drawn) [Compound 224] | 5.92 (≈ 10.7 µM) | 3.73 (≈ 6.72 µM) | – | –
14 | COc1nc2ccc(Cl)cc2cc1C(c1ccc(Cl)cc1)C1(O)CCNC(c2ccc3ccccc3c2)C1 (stereo not drawn) [Compound 431] | 7.66 (≈ 14.1 µM) | 8.60 (≈ 15.8 µM) | – | –
15 | COc1nc2ccc(SC)cc2cc1C(c1ccc(Cl)cc1)C1(O)CCNC(Cc2ccc(F)c(F)c2)C1 (stereo not drawn) [Compound 188] | – | 2.20 (≈ 3.96 µM) | 2.77 (≈ 4.99 µM) | –
16 | O=c1[nH]c2ccc(Cl)cc2cc1C(c1ccc(Cl)cc1)C1(O)CCNC(Cc2ccccc2)C1 (stereo not drawn) [Compound 5] | 1.67 (≈ 3.38 µM) | 1.67 (≈ 3.38 µM) | – | –
17 | CSc1ccc2[nH]c(=O)c(C(c3cccc(Cl)c3)C3(O)CCNC(c4ccc(F)cc4C)C3)cc2c1 (stereo not drawn) [Compound 160] | 2.48 (≈ 4.74 µM) | 3.51 (≈ 6.71 µM) | – | –

Row | Compound | IC90 MSM 607 [1] [µg/mL] | IC90 STA B29213 [2] [µg/mL] | IC90 [1] [µg/mL] | IC90 [2] [µg/mL]
18 | CS(=O)(=O)c1ccc2[nH]c(=O)c(C(c3cccc(Cl)c3)C3(O)CCNC(Cc4ccc(F)cc4F)C3)cc2c1 (stereo not drawn) [Compound 308] | 6.08 (≈ 10.6 µM) | 7.65 (≈ 13.3 µM) | – | –
19 | O=c1[nH]c2ccc(Cl)cc2cc1C(c1ccc(Cl)cc1)C1(O)CCNC(Cc2ccc(F)cc2)C1 (stereo not drawn) [Compound 344] | 8.68 (≈ 17 µM) | 3.46 (≈ 6.77 µM) | – | –
20 | O=c1[nH]c2ccc(Br)cc2cc1C(c1ccc(Cl)cc1)C1(O)CCNC(Cc2ccc(F)cc2)C1 (stereo not drawn) [Compound 363] | 3.74 (≈ 6.73 µM) | 1.87 (≈ 3.36 µM) | – | –
21 | COc1nc2ccc(SC)cc2cc1C(c1cccc(Cl)c1)C1(O)CCNC(c2ccc(F)cc2C)C1 (stereo not drawn) [Compound 148] | 1.70 (≈ 3.17 µM) | 3.39 (≈ 6.31 µM) | – | –
22 | COc1nc2ccc(Cl)cc2cc1C(c1ccc(Cl)cc1)C1(O)CCNCC1C (stereo not drawn) [Compound 421] | 5.43 (≈ 12.6 µM) | 5.43 (≈ 12.6 µM) | – | –
23 | CC1CC(O)(C(c2ccc(Cl)cc2)c2cc3cc(Br)ccc3[nH]c2=O)CCN1 (stereo not drawn) [Compound 129] | – | – | 7.9 (≈ 17.1 µM) | 12.5 (≈ 27.1 µM)
24 | Cc1cc(F)ccc1C1CC(O)(C(c2cccc(Cl)c2)c2cc3cc(S(C)(=O)=O)ccc3[nH]c2=O)CCN1 (stereo not drawn) [Compound 270] | 5.89 (≈ 10.6 µM) | 7.42 (≈ 13.4 µM) | – | –
25 | Cc1cc(F)ccc1C1CC(O)(C(c2ccc(Cl)cc2)c2cc3cc(Br)ccc3[nH]c2=O)CCN1 (stereo not drawn) [Compound 106] | <0.93 | 1.87 (≈ 3.36 µM) | – | –
26 | COc1ccc2nc(OC)c(C(c3ccccc3)C3(O)CCNC(Cc4ccccc4)C3)cc2c1 (stereo not drawn) [Compound 408] | – | – | > 19.2 | > 19.2
27 | CSc1ccc2[nH]c(=O)c(C(c3ccc(Cl)cc3)C3(O)CCNC(c4ccccc4)C3)cc2c1 (stereo not drawn) [Compound 232] | 5.93 (≈ 12.1 µM) | 6.65 (≈ 13.5 µM) | – | –
28 | Cc1cc(F)ccc1C1CC(O)(C(c2cccc(Cl)c2)c2cc3cc(Br)ccc3[nH]c2=O)CCN1 (stereo not drawn) [Compound 144] | 3.24 (≈ 5.83 µM) | 3.63 (≈ 6.53 µM) | – | –
29 | Cc1cc(F)ccc1C1CC(O)(C(c2ccccc2)c2cc3cc(Br)ccc3[nH]c2=O)CCN1 (stereo not drawn) [Compound 280] | 1.10 (≈ 2.11 µM) | 1.75 (≈ 3.36 µM) | – | –
30 | CS(=O)(=O)c1ccc2[nH]c(=O)c(C(c3ccc(Cl)cc3)C3(O)CCNC(Cc4ccc(F)cc4)C3)cc2c1 (stereo not drawn) [Compound 59] | 5.55 (≈ 10 µM) | 6.99 (≈ 12.6 µM) | – | –
31 | COc1nc2ccc(Cl)cc2cc1C(c1ccc(Cl)cc1)C1(O)CCNCC1c1ccccc1 (stereo not drawn) [Compound 411] | 6.50 (≈ 13.2 µM) | 4.10 (≈ 8.31 µM) | – | –
32 | COc1nc2ccc(Br)cc2cc1C(c1cccnc1)C1(O)CCNC(Cc2ccccc2)C1 (stereo not drawn) [Compound 427] | – | – | > 16.1 | > 16.1
33 | COc1nc2ccc(Cl)cc2cc1C(c1ccc(Cl)cc1)C1(O)CCNC(c2ccc(F)cc2C)C1 (single isomer, unassigned) [Compound 4] | 2.09 (≈ 3.98 µM) | 2.63 (≈ 5.01 µM) | – | –
